Measurements from US6046238A, “Method for treating or preventing the spread of acne vulgaris” (TriStrata, Inc., priority 1999, dated 2000).
“Also recorded” adds a separate entry of the source.

How the values were obtained:
[1] = topical treatment of nail infections; type: in vivo, human; details: non-synergistic composition, twice daily
From the text: The participating subjects in the present study were instructed to apply twice daily the composition containing phenyl 2-acetoxyethanoic acid or diphenyl 2-acetoxyethanoic acid with or without clotrimazole as an additional antimicrobial agent.
In order to determine the antimicrobial effect of an aryl 2-acetoxyethanoicacid, a standard test method of Minimum Inhibitory Concentration (MIC) against the growth of 10 bacteria was used. To determine a prophylactic effect against the development of, as well as a topical effect in the treatment of, body foul door, eleven human subjects participated in this study. […] Scientific and test results are overviewed as follows.

[2] = reversal of corticosteroid unresponsiveness in psoriasis; type: in vivo, human; details: added once daily to corticosteroid twice daily; seven patients
Description: To determine the therapeutic responsive effect of an aryl 2-acetoxyethanoicacid against psoriasis seven patient participated in this study. A test composition was prepared by dissolving 1 g phenyl 2-acetoxyethanoic acid or diphenyl 2-acetoxyethanoic acid in 2 ml ethanol. The solution thus obtained was mixed with 60 g petrolatum and 37 g mineral oil. The anhydrous ointment thus formulated was packaged in one-ounce jars.
When the drug unresponsiveness to a corticosteroid occurred, the participating patients were instructed to apply in addition the test composition once daily to the lesions on the left side of the body only. Topical applications of the corticosteroid were continued twice daily to both sides of the body. […] While psoriatic lesions on the right side of the body remained unresponsive to the topical corticosteroid, the lesions on the left side started to clear after 3 to 4 weeks of additional topical application with the composition containing an aryl 2-acetoxyethanoic acid.
At this time the patients were instructed to shift the additional topical application to the lesions on the right side instead of the left side of the body. The psoriatic lesions on the right side of the body began to clear after 3 to 4 weeks of additional topical application with the composition containing aryl 2-acetoxyethanoic acid.

[3] = prophylactic effect in preventing the development of axillary foul odor; type: in vivo, human; details: Example 5; 0.5% solution, topical; one person; up to 24 hours
Description: A typical test for prophylactic effect in preventing the development of axillary foul odor was carried out as follows. A test composition was prepared by dissolving 0.5 g of phenyl 2-acetoxyethanoic acid or diphenyl 2-acetoxyethanoic acid in 70 ml of ethanol and 30 ml of propylene glycol. The control vehicle was prepared by mixing 70 ml of ethanol and 30 ml of propylene glycol. A human subject was instructed to take a shower in the morning using ordinary soap to clean the body surfaces. After the skin was dried, the test composition was topically applied to the left underarm area only. The vehicle control was topically applied to the right underarm area. Both underarm areas were monitored by the subject and at least one other person approximately every 8 hours to determine whether the test composition had any prophylactic effect in preventing the development of underarm foul odor in the left axilla as compared to the vehicle alone on the right control armpit.
Presence or substantial absence of foul odor, detected by smell, was adopted as the criteria for ineffectiveness or effectiveness of the test composition.
A total of seven subjects (four females; three males) participated in several studies. Most of these subjects could not use existing commercial products of antiperspirants or deodorants because of severe irritation after topical application. […]

[4] = topical treatment of folliculitis and perifolliculitis; type: in vivo, human; details: 0.9%, twice daily; nine patients
Description: Nine patients having various degrees of folliculitis and perifolliculitis participated in this study. A test composition containing 0.9% phenyl 2-acetoxyethanoic acid or diphenyl 2-acetoxyethanoic acid was prepared by dissolving 0.9 g compound in 79.1 ml 2-propanol, 15 ml butane-1,3-diol and 5 ml nonoxynol-6. The composition was packaged in one-ounce bottles. The patients were instructed to apply the test composition twice daily on the infected skin lesions and involved areas. Topical applications were continued up to 8 weeks.

[5] = axillary antiodor effectiveness (treatment); type: in vivo, human; details: 0.5%
From the text: In another study the subjects were instructed not to take a shower in the morning. After the foul odor developed in both axillae, the subjects were instructed to apply the test composition containing 0.5% phenyl 2-acetoxyethanoic acid or diphenyl 2-acetoxyethanoic acid on the left underarm area and the control vehicle on the right underarm area. Topical applications were made once daily for several days.
Usually the left underarm ceased emanating any detectable foul odor after 1 day of topical use. The subjects were instructed at this time to apply the test composition containing 0.5% phenyl 2-acetoxyethanoic acid or diphenyl 2-acetoxyethanoic acid on the right underarm area also. Topical applications were made once daily for several days. The right axilla ceased to emanate any detectable foul odor after 1 to 2 days of topical use.

[6] = treatment of oral infections; type: in vivo, human; details: 2% composition diluted to 0.1%; oral rinse twice daily
Description: Compositions for treatment of oral infections may contain an aryl 2-acetoxyethanoic acid as the only active ingredient. In this case a phenyl 2-acetoxyethanoic acid or diphenyl 2-acetoxyethanoic acid 2% composition was formulated by dissolving the active ingredient 2 g in ethanol 78 ml and propylene glycol 20 ml. Before use, this composition was diluted to 0.1% with water by mixing one part of the composition with 19 parts of water. The treatment involves oral rinse, wash and gargle by keeping the diluted composition inside the oral cavity for a few minutes, and then spit out. Such procedure may be repeated twice daily for several days until the infection is eradicated usually within 5-7 days.

[7] = caused by microbial infections including P. acnes; salicylic acid alone; cited from earlier work

SMILES | disappearance of nail infections [1] | onset of improvement of psoriatic lesions, left side [2] | prevention of axillary foul odor (left underarm) [3] | deeper lesions of papules [4] | superficial folliculitis and perifolliculitis lesions [4] | overall axillary antiodor effectiveness ([5]; topical) | left axilla on continued use ([5]; continued, once daily for several days) | time after which left underarm usually ceased emanating any detectable foul odor ([5]; no-shower study, left side) [days] | intensity of foul odor, left underarm ([5]; no-shower study, once daily) | time after which left underarm ceased emanating any detectable foul odor ([5]; Example 6, once daily, one person, left side) [days] | time after which right axilla ceased to emanate any detectable foul odor ([5]; Example 6, right side, formerly vehicle) [days] | time within which oral infection is usually eradicated [6] [days] | effect against acne lesions associated with whiteheads [7]
CC(=O)OC(C(=O)O)(c1ccccc1)c1ccccc1 [diphenyl 2-acetoxyethanoic acid] | usually disappeared within one to several months | began to improve after one week | did not produce any detectable odor, even after 24 hours; also recorded: substantially effective in preventing the development of axillary foul odor | eradicated or substantially improved after 4 to 8 weeks of topical applications | eradicated or substantially improved after a few days of topical applications | topically effective in eradicating the axillary foul odor | continued to maintain the condition free of any offensive foul odor | 1 | diminished in intensity of foul odor after one to two days of topical application | 1 | 1 | 5 to 7 | 
O=C(O)c1ccccc1O [salicylic acid] |  |  |  |  |  |  |  |  |  |  |  |  | not therapeutically effective against acne lesions associated with whiteheads
